How the values were obtained:
PARP1 = target: T1, PARP1 (Homo sapiens, UniProt P09874); assay: PARP1 trapping, chromatin fractionation (chromatin-bound fraction); format: cell-based
T1 construct: endogenous in cells; host or cells: PC3
Description: The trapped PARP1 forms a toxic lesion and stalls the progress of replication forks. The replication fork collapses in BRCA1/2-deficient cancer cells, and then results in cell death. […] Six cancer cell lines were used in this assay, including two breast cancer cell lines, BRCA1-mutunt SUM149PT-BRCA1mut and SUM149PT-BRCA1rev where deleterious BRCA1 mutation is reverted to form a functional BRCA1, two ovarian cancer cell lines, BRCA1-null UWB1.289 and UWB1.289+BRCA1, a stable cell line in which wild-type BRCA1 function has been restored, and two prostate cancer cell lines, enzalutamide resistant C4-2B/MR which is homologous recombination (HR)-deficient due to Rad51 mutation, and enzalutamide insensitive PC3 which is HR-proficient.

ATR = target: T2, ATR (Homo sapiens, UniProt Q13535); assay: ATR-mediated signaling: phosphorylation of Rad17 Ser 645 and CHK1 Ser 345 in cells; format: cell-based; conditions: for ATR inhibition potency relative to JC099 (OLA- or UV-induced phosphorylation of Rad17 and CHK1): compared to JC099
T2 construct: endogenous in cells; host or cells: PC3, C4-2B/MR, SUM149PT-BRCA1rev, UWB1.289+BRCA1, MDA-MB-231
T2 sequence (Q13535 whole entry): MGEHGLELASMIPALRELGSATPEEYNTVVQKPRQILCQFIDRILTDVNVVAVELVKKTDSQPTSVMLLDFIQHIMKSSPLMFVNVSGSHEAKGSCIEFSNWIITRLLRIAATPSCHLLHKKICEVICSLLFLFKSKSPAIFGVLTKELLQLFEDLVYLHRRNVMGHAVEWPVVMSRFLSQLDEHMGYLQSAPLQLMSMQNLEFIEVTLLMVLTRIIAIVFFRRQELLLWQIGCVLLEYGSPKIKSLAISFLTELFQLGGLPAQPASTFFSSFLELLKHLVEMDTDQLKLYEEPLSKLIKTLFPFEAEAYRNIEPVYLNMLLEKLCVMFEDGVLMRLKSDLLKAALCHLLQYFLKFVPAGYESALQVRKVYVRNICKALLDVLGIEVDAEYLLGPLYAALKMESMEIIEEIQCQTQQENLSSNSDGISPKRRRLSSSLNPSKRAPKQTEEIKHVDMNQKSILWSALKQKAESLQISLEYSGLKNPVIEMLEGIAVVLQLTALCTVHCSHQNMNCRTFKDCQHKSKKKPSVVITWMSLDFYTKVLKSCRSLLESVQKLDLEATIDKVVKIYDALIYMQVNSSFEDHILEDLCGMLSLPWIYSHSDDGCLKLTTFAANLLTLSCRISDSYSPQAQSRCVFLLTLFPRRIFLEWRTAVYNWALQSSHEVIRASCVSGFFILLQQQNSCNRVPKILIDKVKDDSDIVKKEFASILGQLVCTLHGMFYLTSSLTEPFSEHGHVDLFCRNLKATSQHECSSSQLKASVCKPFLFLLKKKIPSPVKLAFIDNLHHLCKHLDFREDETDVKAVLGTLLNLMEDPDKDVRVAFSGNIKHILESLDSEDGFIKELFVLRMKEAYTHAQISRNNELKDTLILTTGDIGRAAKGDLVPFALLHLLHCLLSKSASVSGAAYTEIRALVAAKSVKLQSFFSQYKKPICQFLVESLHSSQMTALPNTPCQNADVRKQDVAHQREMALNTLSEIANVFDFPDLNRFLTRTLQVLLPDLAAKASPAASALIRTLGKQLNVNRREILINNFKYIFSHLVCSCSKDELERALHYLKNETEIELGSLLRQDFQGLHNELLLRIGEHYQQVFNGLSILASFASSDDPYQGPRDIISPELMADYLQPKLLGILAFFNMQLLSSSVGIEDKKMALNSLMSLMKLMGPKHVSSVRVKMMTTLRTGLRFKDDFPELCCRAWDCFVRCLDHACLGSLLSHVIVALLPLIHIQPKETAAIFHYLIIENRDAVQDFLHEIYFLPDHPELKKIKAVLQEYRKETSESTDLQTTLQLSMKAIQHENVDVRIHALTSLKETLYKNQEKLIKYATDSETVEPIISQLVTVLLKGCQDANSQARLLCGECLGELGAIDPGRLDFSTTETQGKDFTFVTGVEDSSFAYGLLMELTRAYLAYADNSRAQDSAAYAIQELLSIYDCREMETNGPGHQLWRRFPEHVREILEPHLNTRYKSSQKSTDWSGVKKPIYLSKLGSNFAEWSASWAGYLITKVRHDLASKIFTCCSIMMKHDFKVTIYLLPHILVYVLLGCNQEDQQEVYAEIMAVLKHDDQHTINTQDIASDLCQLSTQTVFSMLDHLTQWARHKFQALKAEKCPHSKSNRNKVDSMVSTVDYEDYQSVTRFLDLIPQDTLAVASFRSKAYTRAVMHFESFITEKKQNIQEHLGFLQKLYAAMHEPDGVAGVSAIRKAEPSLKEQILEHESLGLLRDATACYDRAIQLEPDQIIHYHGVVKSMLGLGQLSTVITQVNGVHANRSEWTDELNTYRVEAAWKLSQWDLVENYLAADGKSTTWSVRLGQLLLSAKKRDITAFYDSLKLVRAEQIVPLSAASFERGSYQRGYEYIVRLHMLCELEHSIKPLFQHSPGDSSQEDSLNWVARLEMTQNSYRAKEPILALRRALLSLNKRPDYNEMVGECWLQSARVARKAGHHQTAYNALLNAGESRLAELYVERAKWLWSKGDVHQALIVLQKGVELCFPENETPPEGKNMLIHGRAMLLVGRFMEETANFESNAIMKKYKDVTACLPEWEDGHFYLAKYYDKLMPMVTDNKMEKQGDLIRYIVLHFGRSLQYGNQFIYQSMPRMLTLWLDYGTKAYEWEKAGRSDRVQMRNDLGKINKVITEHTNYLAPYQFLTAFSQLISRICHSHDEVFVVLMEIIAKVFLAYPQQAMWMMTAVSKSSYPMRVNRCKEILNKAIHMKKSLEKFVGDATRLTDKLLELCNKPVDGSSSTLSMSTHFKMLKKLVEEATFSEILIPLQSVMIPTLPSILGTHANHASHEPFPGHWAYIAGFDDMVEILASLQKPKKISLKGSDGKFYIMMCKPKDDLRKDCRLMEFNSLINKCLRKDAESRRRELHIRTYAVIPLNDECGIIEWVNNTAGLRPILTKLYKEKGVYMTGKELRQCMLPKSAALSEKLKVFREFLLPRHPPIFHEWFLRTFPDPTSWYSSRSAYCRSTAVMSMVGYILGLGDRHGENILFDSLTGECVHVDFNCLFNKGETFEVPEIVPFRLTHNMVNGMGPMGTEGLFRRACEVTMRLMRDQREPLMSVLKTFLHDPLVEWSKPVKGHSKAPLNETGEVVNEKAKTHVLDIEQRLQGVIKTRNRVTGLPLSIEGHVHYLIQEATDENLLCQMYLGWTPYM
T2 sequence (Q8WXE1 whole entry partner): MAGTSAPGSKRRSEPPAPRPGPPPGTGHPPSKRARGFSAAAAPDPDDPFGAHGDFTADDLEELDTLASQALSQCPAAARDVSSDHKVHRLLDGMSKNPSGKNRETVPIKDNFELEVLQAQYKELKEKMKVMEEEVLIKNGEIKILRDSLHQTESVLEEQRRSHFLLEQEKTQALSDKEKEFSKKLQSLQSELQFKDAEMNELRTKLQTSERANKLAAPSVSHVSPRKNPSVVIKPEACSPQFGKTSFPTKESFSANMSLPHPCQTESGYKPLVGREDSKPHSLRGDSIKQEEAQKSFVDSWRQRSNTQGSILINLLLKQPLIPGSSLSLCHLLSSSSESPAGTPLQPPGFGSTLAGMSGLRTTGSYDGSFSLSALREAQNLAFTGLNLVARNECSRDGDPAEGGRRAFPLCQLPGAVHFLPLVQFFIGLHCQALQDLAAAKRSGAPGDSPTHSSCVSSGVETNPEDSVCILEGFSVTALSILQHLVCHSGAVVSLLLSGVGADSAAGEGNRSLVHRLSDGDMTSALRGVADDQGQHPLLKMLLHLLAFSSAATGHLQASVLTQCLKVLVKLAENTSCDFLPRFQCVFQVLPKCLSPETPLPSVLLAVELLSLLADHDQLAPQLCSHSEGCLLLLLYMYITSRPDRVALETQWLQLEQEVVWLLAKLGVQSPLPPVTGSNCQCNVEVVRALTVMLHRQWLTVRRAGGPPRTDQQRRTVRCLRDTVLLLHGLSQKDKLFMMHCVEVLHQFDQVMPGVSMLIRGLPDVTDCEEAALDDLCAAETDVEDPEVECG
Procedure: PARP inhibitor-resistant cells are increasingly dependent on ATR for survival, and ATR inhibition disrupts restored HR and fork protection pathways in PARP inhibitor resistant BRCA-deficient cancer cells. For ATR kinase in vitro assays, ATR was immunoprecipitated with 3 μg of anti-ATR antibody (Bethyl Laboratories, A300-137A) from 1 mg of cell lysate. […] The IC50 was determined by the enzyme profiling service of Eurofins Cerep (France). […] The phosphorylation of CHK1 at Ser 345 sites was used as a bio-marker of ATR-mediated signaling pathway. The phosphorylation of Rad17 at Ser 645, which is a substrate of ATR, was also examined.
ATR inhibition was assessed in C4-2B/MR cells. Considering ATM is a homologous protein of ATR, we also detected the effect of JC046 analogs on the phosphorylation of KAP1 at Ser 824 and CHK2 at Thr 68 sites, which were used as markers of ATM signaling pathway.

T1 sequence (P09874 whole entry, species assumed): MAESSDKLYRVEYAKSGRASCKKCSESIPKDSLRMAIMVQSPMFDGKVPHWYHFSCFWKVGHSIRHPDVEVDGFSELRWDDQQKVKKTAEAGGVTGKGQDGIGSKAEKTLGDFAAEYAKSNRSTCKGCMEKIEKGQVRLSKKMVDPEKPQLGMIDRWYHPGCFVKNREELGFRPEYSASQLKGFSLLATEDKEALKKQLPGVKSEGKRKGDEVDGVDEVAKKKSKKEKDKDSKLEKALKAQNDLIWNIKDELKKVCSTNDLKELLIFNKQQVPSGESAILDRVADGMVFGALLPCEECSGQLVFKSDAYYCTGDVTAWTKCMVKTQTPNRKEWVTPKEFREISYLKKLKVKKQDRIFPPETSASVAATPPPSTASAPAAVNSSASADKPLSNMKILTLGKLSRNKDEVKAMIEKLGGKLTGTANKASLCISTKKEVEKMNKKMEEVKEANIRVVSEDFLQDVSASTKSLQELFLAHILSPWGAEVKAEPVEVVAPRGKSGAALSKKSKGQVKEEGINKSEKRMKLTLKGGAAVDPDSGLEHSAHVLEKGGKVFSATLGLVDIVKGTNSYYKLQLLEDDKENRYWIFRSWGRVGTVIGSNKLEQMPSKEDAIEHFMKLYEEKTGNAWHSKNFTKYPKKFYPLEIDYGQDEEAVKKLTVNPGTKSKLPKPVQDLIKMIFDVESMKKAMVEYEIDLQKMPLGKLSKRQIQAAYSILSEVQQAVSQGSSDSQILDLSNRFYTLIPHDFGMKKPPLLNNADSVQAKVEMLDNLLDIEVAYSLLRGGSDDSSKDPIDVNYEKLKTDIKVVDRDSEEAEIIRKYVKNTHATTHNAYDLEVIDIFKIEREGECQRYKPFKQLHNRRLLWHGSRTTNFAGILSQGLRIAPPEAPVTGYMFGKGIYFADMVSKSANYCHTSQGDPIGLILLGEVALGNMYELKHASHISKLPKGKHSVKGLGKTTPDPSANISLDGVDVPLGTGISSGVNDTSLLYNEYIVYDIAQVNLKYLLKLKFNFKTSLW

Structure (SMILES): O=C1/C(=C/c2ccc(F)c(F)c2)CC(NC(=O)c2ccc(OCCN3CC4(COC4)C3)cc2)C/C1=C\c1ccc(F)c(F)c1 (stereo not drawn) [JCS151, 4-(2-(2-Oxa-6-azaspiro[3.3]heptan-6-yl)ethoxy)-N-(3,5-bis((E)-3,4-difluorobenzylidene)-4-oxocyclohexyl)benzamide]
- PARP1-trapping potency relative to JC099 (PARP1 in the chromatin-bound fraction) (PARP1; PC3 cells): their potencies were less than JC099
- ATR inhibition potency relative to JC099 (OLA- or UV-induced phosphorylation of Rad17 and CHK1) (ATR): their potencies were close to JC099

Structure (SMILES): CN1CCN(CC(=O)Nc2ccc(C(=O)NC3C/C(=C\c4ccc(F)c(F)c4)C(=O)/C(=C/c4ccc(F)c(F)c4)C3)cc2)CC1 (stereo not drawn) [JCS050, N-(3,5-bis((E)-3,4-difluorobenzylidene)-4-oxocyclohexyl)-4-(2-(4-methylpiperazin-1-yl)acetamido)benzamide]
- PARP1 trapped on DNA lesions (PARP1; 0.3 μM, PC3 cells): trapped
- PARP1-trapping potency relative to JC099 (PARP1 in the chromatin-bound fraction) (PARP1; PC3 cells): higher potency in PARP1-trapping
- ATR inhibition potency relative to JC099 (OLA- or UV-induced phosphorylation of Rad17 and CHK1) (ATR): greater ATR inhibition potential

Structure (SMILES): O=C1/C(=C/c2ccc(F)c(F)c2)CC(NC(=O)c2ccc(OCCNN3CCCCC3)cc2)C/C1=C\c1ccc(F)c(F)c1 (stereo not drawn) [JCS150, N-(3,5-Bis((E)-3,4-difluorobenzylidene)-4-oxocyclohexyl)-4-(2-(piperidin-1-ylamino)ethoxy)-benzamide]
- PARP1-trapping potency relative to JC099 (PARP1 in the chromatin-bound fraction) (PARP1; PC3 cells): their potencies were less than JC099
- ATR inhibition potency relative to JC099 (OLA- or UV-induced phosphorylation of Rad17 and CHK1) (ATR): their potencies were close to JC099

Structure (SMILES): O=C1/C(=C/c2ccc(F)c(F)c2)CC(NC(=O)c2ccc(OCCN3CCCC3)cc2)C/C1=C\c1ccc(F)c(F)c1 (stereo not drawn) [JCS008, N-(3,5-Bis((E)-3,4-difluorobenzylidene)-4-oxocyclohexyl)-4-(2-(pyrrolidin-1-yl)ethoxy)benzamide]
- PARP1 trapped on DNA lesions (PARP1; 0.5 μM and 2 μM, PC3 cells): trapped
- PARP1-trapping potency relative to JC099 (PARP1 in the chromatin-bound fraction) (PARP1; PC3 cells): higher potency in PARP1-trapping
- Olaparib induced phosphorylation of Rad17 at Ser 645 and CHK1 at Ser 345 (ATR; 1 μM and 2 μM, PC3 and MDA-MB-231 cells): inhibited

Structure (SMILES): CCN(CCOC)CCOc1ccc(C(=O)NC2C/C(=C\c3ccc(F)c(F)c3)C(=O)/C(=C/c3ccc(F)c(F)c3)C2)cc1 (stereo not drawn) [JCS109, N-(3,5-Bis((E)-3,4-difluorobenzylidene)-4-oxocyclohexyl)-4-(2-(ethyl(2-methoxyethyl)amino)eth-oxy)benzamide]
- PARP1-trapping potency relative to JC099 (PARP1 in the chromatin-bound fraction) (PARP1; PC3 cells): higher potency in PARP1-trapping
- ATR inhibition potency relative to JC099 (OLA- or UV-induced phosphorylation of Rad17 and CHK1) (ATR): greater ATR inhibition potential

Structure (SMILES): CCN(CC)CCOc1ccc(C(=O)NC2C/C(=C\c3ccc(F)c(F)c3F)C(=O)/C(=C/c3ccc(F)c(F)c3F)C2)cc1 (stereo not drawn) [JCS159, 4-(2-(Diethylamino)ethoxy)-N-(4-oxo-3,5-bis((E)-2,3,4-trifluorobenzylidene)cyclohexyl)benzamide]
- PARP1-trapping potency relative to JC099 (PARP1 in the chromatin-bound fraction) (PARP1; PC3 cells): higher potency in PARP1-trapping
- ATR inhibition potency relative to JC099 (OLA- or UV-induced phosphorylation of Rad17 and CHK1) (ATR): less ATR inhibition potencies

Structure (SMILES): O=C1/C(=C/c2ccc(F)c(F)c2)CC(NC(=O)c2cnc(NCCN3CCCC3)cc2C(F)(F)F)C/C1=C\c1ccc(F)c(F)c1 (stereo not drawn) [JCS094, N-(3,5-Bis((E)-3,4-difluorobenzylidene)-4-oxocyclohexyl)-6-((2-(pyrrolidin-1-yl)ethyl)amino)-4-(trifluoromethyl)nicotinamide]
- PARP1-trapping potency relative to JC099 (PARP1 in the chromatin-bound fraction) (PARP1; PC3 cells): higher potency in PARP1-trapping
- ATR inhibition potency relative to JC099 (OLA- or UV-induced phosphorylation of Rad17 and CHK1) (ATR): their potencies were close to JC099

Structure (SMILES): CCCCN(CCCC)CCOc1ccc(C(=O)NC2C/C(=C\c3ccc(F)c(F)c3)C(=O)/C(=C/c3ccc(F)c(F)c3)C2)cc1 (stereo not drawn) [JCS012, N-(3,5-Bis((E)-3,4-difluorobenzylidene)-4-oxocyclohexyl)-4-(2-(dibutylamino)ethoxy)benzamide]
- PARP1 trapped on DNA lesions (PARP1; 0.5 μM and 2 μM, PC3 cells): trapped
- PARP1-trapping potency relative to JC099 (PARP1 in the chromatin-bound fraction) (PARP1; PC3 cells): higher potency in PARP1-trapping
- ATR inhibition potency relative to JC099 (OLA- or UV-induced phosphorylation of Rad17 and CHK1) (ATR): greater ATR inhibition potential

Structure (SMILES): CCN(CC)C(=O)Nc1ccc(C(=O)NC2C/C(=C\c3ccc(F)c(F)c3)C(=O)/C(=C/c3ccc(F)c(F)c3)C2)cc1 (stereo not drawn) [JCS059, N-(3,5-bis((E)-3,4-difluorobenzylidene)-4-oxocyclohexyl)-4-(3,3-diethylureido)benzamide]
- PARP1 trapped on DNA lesions (PARP1; 0.3 μM, PC3 cells): trapped
- Olaparib induced phosphorylation of Rad17 at Ser 645 and CHK1 at Ser 345 (ATR; 1 μM and 2 μM, PC3 cells): inhibited

Structure (SMILES): CN(C)CCCN(CCCN(C)C)C(=O)Nc1ccc(C(=O)NC2C/C(=C\c3ccc(F)c(F)c3)C(=O)/C(=C/c3ccc(F)c(F)c3)C2)cc1 (stereo not drawn) [JCS058, N-(3,5-bis((E)-3,4-difluorobenzylidene)-4-oxocyclohexyl)-4-(3,3-bis(3-(dimethylamino)propyl)ureido)benzamide]
- PARP1 trapped on DNA lesions (PARP1; 0.3 μM, PC3 cells): trapped
- Olaparib induced phosphorylation of Rad17 at Ser 645 and CHK1 at Ser 345 (ATR; 1 μM and 2 μM, PC3 cells): inhibited

Structure (SMILES): CCN(CC)C(=O)c1ccc(C(=O)NC2C/C(=C\c3ccc(F)c(F)c3)C(=O)/C(=C/c3ccc(F)c(F)c3)C2)c2nn(C)cc12 (stereo not drawn) [JCS003, N^7-(3,5-bis((E)-3,4-difluorobenzylidene)-4-oxocyclohexyl)-N^4,N^4-diethyl-2-methyl-2H-indazole-4,7-dicarboxamide]
- PARP1 trapped on DNA lesions (PARP1; 0.5 μM, PC3 and C4-2B/MR cells): trapped
- Olaparib induced phosphorylation of CHK1 at Ser 345 (ATR; 0.5 μM, 1 μM, 2 μM, PC3 and SUM149PT-BRCA1rev cells): inhibited
- Olaparib induced phosphorylation of Rad17 at Ser 645 and CHK1 at Ser 345 (ATR; 2 μM, PC3 cells): inhibited

Structure (SMILES): O=C1/C(=C/c2cc(Cl)cc(Cl)c2)CC(NC(=O)c2ccc(OCCN3CCCCC3)cc2)C/C1=C\c1cc(Cl)cc(Cl)c1 (stereo not drawn) [JCS061, N-(3,5-Bis((E)-3,5-dichlorobenzylidene)-4-oxocyclohexyl)-4-(2-(piperidin-1-yl)ethoxy)benzamide]
- PARP1 trapped on DNA lesions (PARP1; 0.3 μM, PC3 cells): trapped
- Olaparib induced phosphorylation of Rad17 at Ser 645 and CHK1 at Ser 345 (ATR; 1 μM and 2 μM, PC3 cells): inhibited

Structure (SMILES): CCN(CC)C(=O)c1ccc(C2C/C(=C\c3ccc(F)c(F)c3)C(=O)/C(=C/c3ccc(F)c(F)c3)C2)c2nn(C)cc12 (stereo not drawn) [JCS004, 7-(3,5-bis((E)-3,4-difluorobenzylidene)-4-oxocyclohexyl)-N,N-diethyl-2-methyl-2H-indazole-4-carboxamide]
- PARP1 trapped on DNA lesions (PARP1; 0.5 μM and 2 μM, PC3 and C4-2B/MR cells): trapped
- UV induced phosphorylation of CHK1 at Ser 345 (ATR; 1 μM and 2 μM, PC3 and SUM149PT-BRCA1rev cells): inhibited

Structure (SMILES): CCN(CC)C(=O)c1ccc(C(=O)NC2C/C(=C\c3ccc(F)c(F)c3)C(=O)/C(=C/c3ccc(F)c(F)c3)C2)c2[nH]ncc12 (stereo not drawn) [JCS006, N^7-(3,5-bis((E)-3,4-difluorobenzylidene)-4-oxocyclohexyl)-N^4,N^4-diethyl-1H-indazole-4,7-dicarboxamide]
- PARP1 trapped on DNA lesions (PARP1; 0.5 μM, PC3 and C4-2B/MR cells): trapped
- Olaparib induced phosphorylation of Rad17 at Ser 645 and CHK1 at Ser 345 (ATR; 2 μM, PC3 cells): inhibited

Structure (SMILES): O=C1/C(=C/c2ccc(F)c(F)c2)CC(NC(=O)c2ccc3c(ccn3CCN3CCCC3)c2)C/C1=C\c1ccc(F)c(F)c1 (stereo not drawn) [JCS075, N-(3,5-bis((E)-3,4-difluorobenzylidene)-4-oxocyclohexyl)-1-(2-(pyrrolidin-1-yl)ethyl)-1H-indole-5-carboxamide]
- PARP1-trapping potency relative to JC099 (PARP1 in the chromatin-bound fraction) (PARP1; PC3 cells): increased the accumulation of PARP1 in the chromatin-bound fraction than JC099
- Olaparib induced phosphorylation of Rad17 at Ser 645 and CHK1 at Ser 345 (ATR; 1 μM and 2 μM, PC3 cells): decreased the phosphorylation of Rad17 and CHK1

Structure (SMILES): CCCCN(CCCC)C(=O)Nc1ccc(C(=O)NC2C/C(=C\c3ccc(F)c(F)c3)C(=O)/C(=C/c3ccc(F)c(F)c3)C2)cc1 (stereo not drawn) [JCS060, N-(3,5-bis((E)-3,4-difluorobenzylidene)-4-oxocyclohexyl)-4-(3,3-dibutylureido)benzamide]
- PARP1 trapped on DNA lesions (PARP1; 0.3 μM, PC3 cells): trapped
- PARP1-trapping potency relative to JC099 (PARP1 in the chromatin-bound fraction) (PARP1; PC3 cells): higher potency in PARP1-trapping
- Olaparib induced phosphorylation of Rad17 at Ser 645 and CHK1 at Ser 345 (ATR; 1 μM and 2 μM, PC3 cells): inhibited

Structure (SMILES): CCN(CC)CCOc1nncc2cc(C(=O)NC3C/C(=C\c4ccc(F)c(F)c4)C(=O)/C(=C/c4ccc(F)c(F)c4)C3)ccc12 (stereo not drawn) [JCS133, N-(3,5-Bis((E)-3,4-difluorobenzylidene)-4-oxocyclohexyl)-1-(2-(diethylamino)ethoxy)phthalazine-6-carboxamide]
- PARP1-trapping potency relative to JC099 (PARP1 in the chromatin-bound fraction) (PARP1; PC3 cells): higher potency in PARP1-trapping
- ATR inhibition potency relative to JC099 (OLA- or UV-induced phosphorylation of Rad17 and CHK1) (ATR): their potencies were close to JC099

From patent US20260209193A1, “NOVEL INHIBITORS OF DNA DAMAGE RESPONSES FOR CANCER THERAPY” (The Regents of the University of California, priority 2022, published 2026)
